The target of assay [1] is T1, ALK-wt kinase domain (Homo sapiens, UniProt Q9UM73).
T1 construct: TRKA-wt (1 nM, BPS Bio, 40280) kinase domains in buffer; purchased Carna 08-518
In words: Biochemical kinase assay, ALK-wt. As to conditions: 2 mM ATP substrate solution, read-out: Ki^app ALK-wt. The method, then: (§1) First, 250 nL of compound dissolved in DMSO (100-fold of the desired concentration) was dispensed into a 384-well plate. A 12.5 μL substrate solution containing ATP (2 mM) and fluorogenic phosphorylation substrate AQT0101 (26 μM for ALK and ROS1, AssayQuant) or AQT0104 (26 μM for TRKA, AssayQuant) in buffer (50 mM HEPES pH 7.5, 0.01% Brij-35, 0.5 mM EGTA, 10 mM MgCl2) was added and mixed thoroughly. Then, a 12.5 μL kinase solution containing ALK-wt (1.5 nM, Carna, 08-518), ALK ALK L1196M/G1202R (3 nM, SignalChem, A19-12NG), ROS1-wt (0.6 nM, Carna, 08-163), ROS1-G2032R (0.5 nM, SignalChem, R14-12BG), or TRKA-wt (1 nM, BPS Bio, 40280) kinase domains in buffer ([…] HEPES pH 7.5, 0.01% Brij-35, 2% glycerol, 0.4 mg/mL BSA, 0.5 mM EGTA, and 10 mM MgCl2) was added and mixed thoroughly. The plate was sealed and read by SpectraMax Paradigm at λ=485 nm every 2 minutes for 120 minutes at 30° C. Initial rates of reaction (v) were calculated from the change in fluorescence intensity over time during the initial, linear portion of the reaction. Finally, apparent inhibitory constants (Ki^app) were determined from regression of v and I (inhibitor concentration) to Morrison Equation (E=enzyme concentration): […]

Assay [2] deals with T2, ALK L1196M/G1202R kinase domain (Homo sapiens, UniProt Q9UM73, G1202R/L1196M).
T2 construct: TRKA-wt (1 nM, BPS Bio, 40280) kinase domains in buffer; purchased SignalChem A19-12NG
In words: Biochemical kinase assay, ALK L1196M/G1202R. As to conditions: 2 mM ATP substrate solution, read-out: Ki^app ALK-L1196M-G1202R. The method, then:
as §1

The target of assay [3] is T3, ROS1-wt kinase domain (Homo sapiens, UniProt P08922).
T3 construct: TRKA-wt (1 nM, BPS Bio, 40280) kinase domains in buffer; purchased Carna 08-163
In words: Biochemical kinase assay, ROS1-wt. As to conditions: 2 mM ATP substrate solution, read-out: Ki^app ROS1-wt. The procedure: as §1

Assay [4] concerns the target T4, ROS1-G2032R kinase domain (Homo sapiens, UniProt P08922, G2032R).
T4 construct: TRKA-wt (1 nM, BPS Bio, 40280) kinase domains in buffer; purchased SignalChem R14-12BG
The experiment in a line: Biochemical kinase assay, ROS1-G2032R. As to conditions: 2 mM ATP substrate solution, read-out: Ki^app ROS1-G2032R. The method, then:
as §1

Assay [5] deals with T5, TRKA-wt kinase domain (Homo sapiens, UniProt P04629).
T5 construct: TRKA-wt (1 nM, BPS Bio, 40280) kinase domains in buffer; purchased BPS Bio 40280
In words: Biochemical kinase assay, TRKA-wt. As to conditions: 2 mM ATP substrate solution, read-out: Ki^app TRKA-wt. The procedure: as §1

pKi: −log10 of the molar value.

In general, pKi refers to the negative decadic logarithm of the Ki, by convention in mol/L. Take `CCn1ncc2c1-c1cnc(N)c(c1)O[C@H](C)c1cc(F)ccc1-c1nn(C)cc1C2` [Compound 1]: the negative-log Ki (pKi) in assay [1], in assay [2], in assay [3], in assay [4] and in assay [5] was more than 7.30 in each case.
`CC1Oc2cc(cnc2N)-c2c(cnn2C)Cc2cnn(C)c2-c2ccc(F)cc21` (stereo not shown) [Compound 2]: the negative logarithm of the Ki (pKi) was more than 7.30 in assay [1]; 6.30 to 7.30 in assay [2]; more than 7.30 in assay [3]; more than 7.30 in assay [4]; 6.30 to 7.30 in assay [5].
Take `CCn1ncc2c1-c1cnc(N)c(c1)O[C@H](C)c1cc(F)ccc1-c1ncccc1C2` [Compound 3]: the negative logarithm of the Ki (pKi) in assay [1], in assay [2], in assay [3], in assay [4] and in assay [5] was more than 7.30 each time.
For `CCn1ncc2c1-c1ccc(F)cc1[C@@H](C)Oc1cc(cnc1N)-c1c(cnn1C)C2` [Compound 4], the negative-log Ki (pKi) in assay [1], in assay [2], in assay [3], in assay [4] and in assay [5] was more than 7.30 in each case.
On to `C[C@H]1Oc2cc(cnc2N)-c2c(cnn2C2CCC2)Cc2cnn(C)c2-c2ccc(F)cc21` [Compound 5], for which the negative logarithm of the Ki (pKi) was more than 7.30 in assay [1]; more than 7.30 in assay [2]; more than 7.30 in assay [3]; more than 7.30 in assay [4]; less than 6.30 in assay [5].
Regarding `CCc1c(C#N)nn2c1-c1cnc(N)c(c1)O[C@H](C)c1cc(F)ccc1-c1nn(C)cc1C2` [Compound 6], the pKi in assay [1] is more than 7.30; in assay [2], more than 7.30; in assay [3] it was more than 7.30; in assay [4] it was more than 7.30; in assay [5], 6.30 to 7.30.
Consider `C[C@H]1Oc2cc(cnc2N)-c2c(C#N)cnn2Cc2cn(C)nc2-c2ccc(F)cc21` [Compound 9], for which the pKi is more than 7.30 in assay [1]; more than 7.30 in assay [2]; more than 7.30 in assay [3]; more than 7.30 in assay [4]; less than 6.30 in assay [5].
Consider `C[C@H]1Oc2cc(cnc2N)-c2c(C#N)ncn2Cc2cnccc2-c2ccc(F)cc21` [Compound 10], for which the negative logarithm of the Ki (pKi) in assay [1] is more than 7.30; in assay [2], more than 7.30; in assay [3] it was more than 7.30; in assay [4], more than 7.30; in assay [5] it was less than 6.30.
For `C[C@H]1Oc2cc(cnc2N)-c2c(C#N)ncn2Cc2ccncc2-c2ccc(F)cc21` [Compound 11], the negative logarithm of the Ki (pKi) in assay [1] was more than 7.30; in assay [2] it was 6.30 to 7.30; in assay [3] it was more than 7.30; in assay [4], more than 7.30; in assay [5] it was less than 6.30.
Turning to `C[C@H]1Oc2cc(cnc2N)-c2c(C#N)ncn2Cc2cccnc2-c2ccc(F)cc21` [Compound 12], the pKi was more than 7.30 in assay [1]; more than 7.30 in assay [2]; more than 7.30 in assay [3]; more than 7.30 in assay [4]; less than 6.30 in assay [5].
For the compound `C[C@H]1Oc2cc(cnc2N)-c2c(C#N)ncn2Cc2cn(C)nc2-c2ccc(F)cc21` [Compound 13], the negative logarithm of the Ki (pKi) is more than 7.30 in assay [1]; more than 7.30 in assay [2]; more than 7.30 in assay [3]; more than 7.30 in assay [4]; less than 6.30 in assay [5].
Consider `C[C@H]1Oc2cc(cnc2N)-c2c(C#N)cnn2Cc2cccnc2-c2ccc(F)cc21` [Compound 14], for which the negative logarithm of the Ki (pKi) was more than 7.30 in assay [1]; more than 7.30 in assay [2]; more than 7.30 in assay [3]; more than 7.30 in assay [4]; 6.30 to 7.30 in assay [5].
On to `C[C@H]1Oc2cc(cnc2N)-c2c(C#N)noc2Cc2cn(C)nc2-c2ccc(F)cc21` [Compound 15], for which the pKi in assay [1] was more than 7.30; in assay [2], more than 7.30; in assay [3], more than 7.30; in assay [4], more than 7.30; in assay [5], less than 6.30.
Turning to `CCc1nnn2c1-c1cnc(N)c(c1)O[C@H](C)c1cc(F)ccc1-c1ncc(F)cc1C2` [Compound 16], the pKi was more than 7.30 in assay [1]; more than 7.30 in assay [2]; more than 7.30 in assay [3]; more than 7.30 in assay [4]; 6.30 to 7.30 in assay [5].
On to `C[C@H]1Oc2cc(cnc2N)-c2c(C(F)F)cnn2Cc2cc(F)cnc2-c2ccc(F)cc21` [Compound 17], for which the negative logarithm of the Ki (pKi) in assay [1] was more than 7.30; in assay [2] it was 6.30 to 7.30; in assay [3], more than 7.30; in assay [4], 6.30 to 7.30; in assay [5] it was 6.30 to 7.30.
In the case of `Cc1nc(C#N)c2n1Cc1cccnc1-c1ccc(F)cc1[C@@H](C)Oc1cc-2cnc1N` [Compound 18], the negative logarithm of the Ki (pKi) in assay [1] was more than 7.30; in assay [2] it was more than 7.30; in assay [3], more than 7.30; in assay [4] it was more than 7.30; in assay [5] it was less than 6.30.
As for `CCc1noc2c1-c1cnc(N)c(c1)O[C@H](C)c1cc(F)ccc1-c1nn(C)cc1C2` [Compound 19], the negative logarithm of the Ki (pKi) in assay [1], in assay [2], in assay [3], in assay [4] and in assay [5] was more than 7.30 throughout.
Consider `CCn1nnc2c1-c1cnc(N)c(c1)O[C@H](C)c1cc(F)ccc1-c1nn(C)cc1C2` [Compound 20], for which the negative logarithm of the Ki (pKi) in assay [1] is more than 7.30; in assay [2] it was more than 7.30; in assay [3], more than 7.30; in assay [4] it was more than 7.30; in assay [5], 6.30 to 7.30.
Turning to `C[C@H]1Oc2cc(cnc2N)-c2c(cnn2CC(F)F)Cc2cn(C)nc2-c2ccc(F)cc21` [Compound 22], the negative logarithm of the Ki (pKi) in assay [1] is more than 7.30; in assay [2] it was more than 7.30; in assay [3], more than 7.30; in assay [4], more than 7.30; in assay [5], less than 6.30.
In the case of `C[C@H]1Oc2cc(cnc2N)-c2c(C#N)nnn2Cc2cn(C)nc2-c2ccc(F)cc21` [Compound 24], the pKi is more than 7.30 in assay [1]; more than 7.30 in assay [2]; more than 7.30 in assay [3]; 6.30 to 7.30 in assay [4]; less than 6.30 in assay [5].
`C[C@H]1Oc2cc(cnc2N)-c2c(C#N)nnn2Cc2cccnc2-c2ccc(F)cc21` [Compound 25]: the pKi in assay [1] was more than 7.30; in assay [2], 6.30 to 7.30; in assay [3] it was more than 7.30; in assay [4], 6.30 to 7.30; in assay [5] it was less than 6.30.
Turning to `C[C@H]1Oc2cc(cnc2N)-c2c(C3CCC3)noc2Cc2cn(C)nc2-c2ccc(F)cc21` [Compound 26], the pKi is more than 7.30 in assay [1]; more than 7.30 in assay [2]; more than 7.30 in assay [3]; more than 7.30 in assay [4]; 6.30 to 7.30 in assay [5].
As to `C[C@H]1Oc2cc(cnc2N)-c2c(cnn2CC(F)(F)F)Cc2cn(C)nc2-c2ccc(F)cc21` [Compound 27], the pKi in assay [1] is more than 7.30; in assay [2] it was more than 7.30; in assay [3] it was more than 7.30; in assay [4], more than 7.30; in assay [5] it was less than 6.30.
With `CCn1ncc2c1-c1cnc(N)c(c1)O[C@H](C)c1cc(F)ccc1-c1nn(C)c(Cl)c1C2` [Compound 28], the pKi in assay [1], in assay [2], in assay [3], in assay [4] and in assay [5] was more than 7.30 throughout.
Regarding `C[C@H]1Oc2cc(cnc2N)-c2c(nnn2CC2CC2)Cc2cn(C)nc2-c2ccc(F)cc21` [Compound 29], the pKi was more than 7.30 in assay [1]; more than 7.30 in assay [2]; more than 7.30 in assay [3]; more than 7.30 in assay [4]; 6.30 to 7.30 in assay [5].
As to `CCc1noc2c1-c1cnc(N)c(c1)OCc1cc(F)ccc1-c1nn(C)cc1C2` [Compound 30], the pKi was more than 7.30 in assay [1]; more than 7.30 in assay [2]; more than 7.30 in assay [3]; 6.30 to 7.30 in assay [4]; less than 6.30 in assay [5].
`CCn1ncc2c1-c1cnc(N)c(c1)O[C@H](C)c1cc(F)ccc1-c1nccn1C2` [Compound 31]: the pKi in assay [1], in assay [2], in assay [3], in assay [4] and in assay [5] was more than 7.30 each time.
Turning to `CCn1ncc2c1-c1cnc(N)c(c1)O[C@H](C)c1cc(F)ccc1-n1ncc(F)c1C2` [Compound 46], the negative-log Ki (pKi) in assay [1], in assay [2], in assay [4] and in assay [5] was more than 7.30 each time.

For the origin of these results see US11667649B2, “Heteroaromatic macrocyclic ether chemotherapeutic agents” (Nuvalent, Inc., priority 2020, dated 2023).
